ChEMBL document CHEMBL1155271, “Synthesis, crystal structures and antibacterial activity studies of aza-derivatives of phytoalexin from cotton plant--gossypol” (2009)
In brackets after ≈: the same amount, converted by molar mass. Activity calls are given as the source filed them. The rule behind the calls is not given here.

How the values were obtained:
Format in all cases: functional
[1] = test system: Staphylococcus aureus; test: Antimicrobial activity against Methicillin susceptible Staphylococcus aureus 243/7 by twofold dilution technique
[2] = test system: Staphylococcus aureus; test: Antimicrobial activity against methicillin-resistant Staphylococcus aureus 236/7 by twofold dilution technique
[3] = test system: Staphylococcus epidermidis; test: Antimicrobial activity against Staphylococcus epidermidis ATCC 12228 by twofold dilution technique
[4] = test system: Staphylococcus aureus; test: Antimicrobial activity against Staphylococcus aureus ATCC 6538 after 18 hrs by twofold dilution technique; settings: ATCC 6538, 18 h
[5] = test system: Staphylococcus aureus; test: Antimicrobial activity against Methicillin susceptible Staphylococcus aureus 208/7 by twofold dilution technique
[6] = test system: Staphylococcus aureus; test: Antimicrobial activity against Methicillin susceptible Staphylococcus aureus 239/7 by twofold dilution technique
[7] = test system: Staphylococcus aureus; test: Antimicrobial activity against Methicillin susceptible Staphylococcus aureus 213/7 by twofold dilution technique
[8] = test system: Micrococcus luteus; test: Antimicrobial activity against Micrococcus luteus ATCC 9341 at 400 ug after 18 hrs by disk diffusion method
[9] = test system: Micrococcus luteus; test: Antimicrobial activity against Micrococcus luteus ATCC 10240 by twofold dilution technique
[10] = test system: Staphylococcus aureus; test: Antimicrobial activity against methicillin-resistant Staphylococcus aureus 146/6 by twofold dilution technique
[11] = test system: Staphylococcus aureus; test: Antimicrobial activity against methicillin-resistant Staphylococcus aureus 141/6 by twofold dilution technique
[12] = test system: Staphylococcus aureus; test: Antimicrobial activity against Methicillin susceptible Staphylococcus aureus 206/7 by twofold dilution technique
[13] = test system: Staphylococcus aureus; test: Antimicrobial activity against Staphylococcus aureus ATCC 25923 after 18 hrs by twofold dilution technique; settings: ATCC 25923, 18 h
[14] = test system: Bacillus subtilis; test: Antimicrobial activity against Bacillus subtilis ATCC 6633 at 400 ug after 18 hrs by disk diffusion method; settings: ATCC 6633, 18 h, read-out: DIZ
[15] = test system: Staphylococcus aureus; test: Antimicrobial activity against Staphylococcus aureus NCTC 4163 after 18 hrs by twofold dilution technique; settings: NCTC 4163, 18 h
[16] = test system: Staphylococcus aureus; test: Antimicrobial activity against methicillin-resistant Staphylococcus aureus 140/6 by twofold dilution technique
[17] = test system: Staphylococcus aureus; test: Antimicrobial activity against methicillin-resistant Staphylococcus aureus 218/7 by twofold dilution technique
[18] = test system: Staphylococcus aureus; test: Antimicrobial activity against Methicillin susceptible Staphylococcus aureus 238/7 by twofold dilution technique
[19] = test system: Staphylococcus aureus; test: Antimicrobial activity against methicillin-resistant Staphylococcus aureus 217/7 by twofold dilution technique
[20] = test system: Staphylococcus aureus; test: Antimicrobial activity against Methicillin susceptible Staphylococcus aureus 242/7 by twofold dilution technique
[21] = test system: Staphylococcus aureus; test: Antimicrobial activity against methicillin-resistant Staphylococcus aureus 143/6 by twofold dilution technique
[22] = test system: Staphylococcus epidermidis; test: Antimicrobial activity against Staphylococcus epidermidis ATCC 12228 at 400 ug after 18 hrs by disk diffusion method; settings: ATCC 12228, 18 h, read-out: DIZ
[23] = test system: Staphylococcus aureus; test: Antimicrobial activity against methicillin-resistant Staphylococcus aureus 144/6 by twofold dilution technique
[24] = test system: Staphylococcus aureus; test: Antimicrobial activity against methicillin-resistant Staphylococcus aureus 136/6 by twofold dilution technique
[25] = test system: Enterococcus hirae; test: Antimicrobial activity against Enterococcus hirae ATCC 10541 after 18 hrs by twofold dilution technique; settings: ATCC 10541, 18 h
[26] = test system: Bacillus subtilis; test: Antimicrobial activity against Bacillus subtilis ATCC 6633 after 18 hrs by twofold dilution technique; settings: ATCC 6633, 18 h
[27] = test system: Micrococcus luteus; test: Antimicrobial activity against Micrococcus luteus ATCC 10240 at 400 ug after 18 hrs by disk diffusion method; settings: ATCC 10240, 18 h, read-out: DIZ
[28] = test system: Staphylococcus aureus; test: Antimicrobial activity against Staphylococcus aureus ATCC 6538 at 400 ug after 18 hrs by disk diffusion method; settings: ATCC 6538, 18 h, read-out: DIZ
[29] = test system: Staphylococcus aureus; test: Antimicrobial activity against Staphylococcus aureus NCTC 4163 at 400 ug after 18 hrs by disk diffusion method; settings: NCTC 4163, 18 h, read-out: DIZ
[30] = test system: Staphylococcus aureus; test: Antimicrobial activity against Staphylococcus aureus ATCC 29213 after 18 hrs by twofold dilution technique; settings: ATCC 29213, 18 h
[31] = test system: Staphylococcus aureus; test: Antimicrobial activity against Methicillin susceptible Staphylococcus aureus 237/7 by twofold dilution technique
[32] = test system: Enterococcus hirae; test: Antimicrobial activity against Enterococcus hirae ATCC 10541 at 400 ug after 18 hrs by disk diffusion method
[33] = test system: Micrococcus luteus; test: Antimicrobial activity against Micrococcus luteus ATCC 9341 after 18 hrs by twofold dilution technique; settings: ATCC 9341, 18 h
[34] = test system: Staphylococcus aureus; test: Antimicrobial activity against Staphylococcus aureus ATCC 25923 at 400 ug after 18 hrs by disk diffusion method; settings: ATCC 25923, 18 h, read-out: DIZ
[35] = test system: Staphylococcus aureus; test: Antimicrobial activity against Methicillin susceptible Staphylococcus aureus 207/7 by twofold dilution technique
[36] = test system: Bacillus cereus; test: Antimicrobial activity against Bacillus cereus ATCC 11778 at 400 ug after 18 hrs by disk diffusion method; settings: ATCC 11778, 18 h, read-out: DIZ
[37] = test system: Staphylococcus aureus; test: Antimicrobial activity against Methicillin susceptible Staphylococcus aureus 212/7 by twofold dilution technique
[38] = test system: Staphylococcus aureus; test: Antimicrobial activity against Staphylococcus aureus ATCC 29213 at 400 ug after 18 hrs by disk diffusion method; settings: ATCC 29213, 18 h, read-out: DIZ
[39] = test system: Bacillus cereus; test: Antimicrobial activity against Bacillus cereus ATCC 11778 after 18 hrs by twofold dilution technique; settings: ATCC 11778, 18 h
[40] = test system: Staphylococcus aureus; test: Antimicrobial activity against methicillin-resistant Staphylococcus aureus 200/7 by twofold dilution technique

| Compound | MIC [1] [µg/mL] | MIC [2] [µg/mL] | MIC [3] [µg/mL] | MIC [4] [µg/mL] | MIC [5] [µg/mL] | MIC [6] [µg/mL] | MIC [7] [µg/mL] | diameter of the inhibition zone (DIZ) [8] | MIC [9] [µg/mL] | MIC [10] [µg/mL] | MIC [11] [µg/mL] | MIC [12] [µg/mL] | MIC [13] [µg/mL] | zone of inhibition at 400 µg/disc [14] [mm] | MIC [15] [µg/mL] | MIC [16] [µg/mL] | MIC [17] [µg/mL] | MIC [18] [µg/mL] | MIC [19] [µg/mL] | MIC [20] [µg/mL] | other results |
| --- | --- | --- | --- | --- | --- | --- | --- | --- | --- | --- | --- | --- | --- | --- | --- | --- | --- | --- | --- | --- | --- |
| COCCOCCOCCN/N=C/c1c(O)c(O)c(C(C)C)c2cc(C)c(-c3c(C)cc4c(C(C)C)c(O)c(O)c(/C=N/NCCOCCOCCOC)c4c3O)c(O)c12 | 400 (≈ 477 µM) | 100 (≈ 119 µM) | > 400 | 200 (≈ 238 µM) | 400 (≈ 477 µM) | 400 (≈ 477 µM) | 400 (≈ 477 µM) | inactive | 400 (≈ 477 µM) | 200 (≈ 238 µM) | 400 (≈ 477 µM) | 200 (≈ 238 µM) | 200 (≈ 238 µM) | 11 | 200 (≈ 238 µM) | 200 (≈ 238 µM) | 400 (≈ 477 µM) | 400 (≈ 477 µM) | 200 (≈ 238 µM) | 100 (≈ 119 µM) | MIC [21]: 400 µg/mL (≈ 477 µM); zone of inhibition at 400 µg/disc [22]: 14 mm; MIC [23]: 400 µg/mL (≈ 477 µM); MIC [24]: 200 µg/mL (≈ 238 µM); MIC [25]: 200 µg/mL (≈ 238 µM); MIC [26]: > 400 µg/mL; zone of inhibition at 400 µg/disc [27]: 13 mm; zone of inhibition at 400 µg/disc [28]: 11 mm; zone of inhibition at 400 µg/disc [29]: 11 mm; MIC [30]: 200 µg/mL (≈ 238 µM); MIC [31]: 400 µg/mL (≈ 477 µM); diameter of the inhibition zone (DIZ) [32]: inactive; MIC [33]: 400 µg/mL (≈ 477 µM); zone of inhibition at 400 µg/disc [34]: 12 mm; MIC [35]: 400 µg/mL (≈ 477 µM); zone of inhibition at 400 µg/disc [36]: 12 mm; MIC [37]: 400 µg/mL (≈ 477 µM); zone of inhibition at 400 µg/disc [38]: 12 mm; MIC [39]: 100 µg/mL (≈ 119 µM); MIC [40]: 400 µg/mL (≈ 477 µM) |
| Cc1cc2c(C(C)C)c(O)c(O)c(/C=N/N3CCN(CCO)CC3)c2c(O)c1-c1c(C)cc2c(C(C)C)c(O)c(O)c(/C=N/N3CCN(CCO)CC3)c2c1O | 25 (≈ 32.3 µM) | 25 (≈ 32.3 µM) | 200 (≈ 259 µM) | 25 (≈ 32.3 µM) | 50 (≈ 64.7 µM) | 25 (≈ 32.3 µM) | 50 (≈ 64.7 µM) | inactive | 50 (≈ 64.7 µM) | 50 (≈ 64.7 µM) | 50 (≈ 64.7 µM) | 25 (≈ 32.3 µM) | 50 (≈ 64.7 µM) | 12 | 50 (≈ 64.7 µM) | 50 (≈ 64.7 µM) | 50 (≈ 64.7 µM) | 25 (≈ 32.3 µM) | 50 (≈ 64.7 µM) | 12.5 (≈ 16.2 µM) | MIC [21]: 50 µg/mL (≈ 64.7 µM); zone of inhibition at 400 µg/disc [22]: 14 mm; MIC [23]: 50 µg/mL (≈ 64.7 µM); MIC [24]: 50 µg/mL (≈ 64.7 µM); MIC [25]: 50 µg/mL (≈ 64.7 µM); MIC [26]: 100 µg/mL (≈ 129 µM); zone of inhibition at 400 µg/disc [27]: 15 mm; zone of inhibition at 400 µg/disc [28]: 12 mm; zone of inhibition at 400 µg/disc [29]: 13 mm; MIC [30]: 25 µg/mL (≈ 32.3 µM); MIC [31]: 25 µg/mL (≈ 32.3 µM); diameter of the inhibition zone (DIZ) [32]: inactive; MIC [33]: 50 µg/mL (≈ 64.7 µM); zone of inhibition at 400 µg/disc [34]: 13 mm; MIC [35]: 50 µg/mL (≈ 64.7 µM); zone of inhibition at 400 µg/disc [36]: 12 mm; MIC [37]: 50 µg/mL (≈ 64.7 µM); zone of inhibition at 400 µg/disc [38]: 12 mm; MIC [39]: 25 µg/mL (≈ 32.3 µM); MIC [40]: 50 µg/mL (≈ 64.7 µM) |
